Data from patent US9266883B2, “Ring-fused bicyclic pyridyl derivatives as FGFR4 inhibitors” (Novartis AG, priority 2013, dated 2016).
Read-outs that look alike come from different tables or passages of the source.

What was measured:
[1] = biological target: Tel-FGFR4 (Homo sapiens (Human), UniProt P22455); assay: In vitro cellular kinase assay for FGFR4 (BaF3-Tel-FGFR4 cells, MSD capture ELISA of tyrosine phosphorylation); format: cell-based
[2] = biological target: FGFR4 (GST-FGFR4(388-802)) (Homo sapiens (Human), UniProt P22455); assay: In-vitro biochemical kinase assay for FGFR4 (Caliper microfluidic mobility shift)
Sequence of FGFR4 (GST-FGFR4(388-802)) (P22455 388-802): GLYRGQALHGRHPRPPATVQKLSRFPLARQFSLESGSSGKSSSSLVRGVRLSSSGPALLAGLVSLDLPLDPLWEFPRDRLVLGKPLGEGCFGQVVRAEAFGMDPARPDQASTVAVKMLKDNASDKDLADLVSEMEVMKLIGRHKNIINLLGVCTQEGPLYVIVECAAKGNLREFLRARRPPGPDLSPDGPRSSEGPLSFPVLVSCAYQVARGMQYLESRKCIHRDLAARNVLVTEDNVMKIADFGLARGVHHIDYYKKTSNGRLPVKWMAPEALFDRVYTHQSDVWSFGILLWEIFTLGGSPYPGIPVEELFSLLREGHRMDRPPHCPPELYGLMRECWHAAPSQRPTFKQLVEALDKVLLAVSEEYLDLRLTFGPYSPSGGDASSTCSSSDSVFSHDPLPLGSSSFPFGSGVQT

[3] = BaF3-Tel-FGFR4 cells, 1 hour incubation, read-out: Cellular BaF3 FGFR4 IC50
[4] = read-out: Biochemical FGFR4 IC50
[5] = Cellular BaF3 FGFR4 assay, read-out: Cellular IC50
[6] = biochemical FGFR4 assay, read-out: Biochemical IC50

Sequence of Tel-FGFR4 (P22455 other isoform, or with tags, fused parts or gaps): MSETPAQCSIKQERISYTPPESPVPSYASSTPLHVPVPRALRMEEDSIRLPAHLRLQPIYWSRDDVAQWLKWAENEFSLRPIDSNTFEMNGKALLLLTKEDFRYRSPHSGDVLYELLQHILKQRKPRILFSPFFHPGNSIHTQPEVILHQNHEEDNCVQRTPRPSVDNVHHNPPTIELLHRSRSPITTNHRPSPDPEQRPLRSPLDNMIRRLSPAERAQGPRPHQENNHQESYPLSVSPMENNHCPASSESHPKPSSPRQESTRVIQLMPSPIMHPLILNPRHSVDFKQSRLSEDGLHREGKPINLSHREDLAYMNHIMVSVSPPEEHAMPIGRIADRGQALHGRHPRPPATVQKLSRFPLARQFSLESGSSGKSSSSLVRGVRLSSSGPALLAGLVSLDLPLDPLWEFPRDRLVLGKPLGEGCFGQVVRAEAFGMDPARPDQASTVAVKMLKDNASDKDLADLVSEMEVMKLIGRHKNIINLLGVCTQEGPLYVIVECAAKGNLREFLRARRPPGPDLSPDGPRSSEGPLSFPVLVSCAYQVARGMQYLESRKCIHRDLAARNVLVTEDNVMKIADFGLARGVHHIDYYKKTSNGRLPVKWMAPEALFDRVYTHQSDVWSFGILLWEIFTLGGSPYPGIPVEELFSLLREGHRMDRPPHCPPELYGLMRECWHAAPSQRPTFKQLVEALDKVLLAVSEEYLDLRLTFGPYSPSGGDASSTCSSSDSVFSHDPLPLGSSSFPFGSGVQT

CC(=O)N(C)Cc1cc2c(nc1C=O)N(C(=O)Nc1cc(SC(C)C)c(C#N)cn1)CCC2 [Example 240, N-(5-cyano-4-(isopropylthio)pyridin-2-yl)-7-formyl-6-((N-methylacetamido)methyl)-3,4-dihydro-1,8-naphthyridine-1(2H)-carboxamide]
IC50 [1, 3]: 11.1 nM
IC50 [2, 4]: < 0.1 nM

CC(C)Oc1cc(NC(=O)N2c3nc(C=O)c(Br)cc3CC[C@@H]2C)ncc1C#N [(S)-6-bromo-N-(5-cyano-4-isopropoxypyridin-2-yl)-7-formyl-2-methyl-3,4-dihydro-1,8-naphthyridine-1(2H)-carboxamide]
IC50 [1, 5]: 95.5 nM
IC50 [2, 6]: 3.3 nM

CCN(Cc1cc2c(nc1C=O)N(C(=O)Nc1cc(NCCOC)c(C#N)cn1)CCC2)C(=O)CN(C)C [N-(5-cyano-4-((2-methoxyethyl)amino)pyridin-2-yl)-6-((2-(dimethylamino)-N-ethylacetamido)methyl)-7-formyl-3,4-dihydro-1,8-naphthyridine-1(2H)-carboxamide]
IC50 [1, 5]: 5.5 nM
IC50 [2, 6]: 0.5 nM

COCCNc1cc(NC(=O)N2CCCc3cc(CN4CCCC4=O)c(C=O)nc32)ncc1C#N [N-(5-cyano-4-((2-methoxyethyl)amino)pyridin-2-yl)-7-formyl-6-((2-oxopyrrolidin-1-yl)methyl)-3,4-dihydro-1,8-naphthyridine-1(2H)-carboxamide]
IC50 [1, 5]: 3.6 nM
IC50 [2, 6]: 1.1 nM

CC(C)(O)CNc1cc(NC(=O)N2CCCc3cc(CO)c(C=O)nc32)ncc1C#N [Example 86, N-(5-cyano-4-((2-hydroxy-2-methylpropyl)amino)pyridin-2-yl)-7-formyl-6-(hydroxymethyl)-3,4-dihydro-1,8-naphthyridine-1(2H)-carboxamide]
IC50 [1, 3]: 12 nM
IC50 [2, 4]: 4.9 nM

COCCNc1cc(NC(=O)N2CCCc3cc(CN4CC[C@@H](N(C)C)C4=O)c(C=O)nc32)ncc1C#N [(R)-N-(5-cyano-4-((2-methoxyethyl)amino)pyridin-2-yl)-6-((3-(dimethylamino)-2-oxopyrrolidin-1-yl)methyl)-7-formyl-3,4-dihydro-1,8-naphthyridine-1(2H)-carboxamide]
IC50 [1, 5]: 3.9 nM
IC50 [2, 6]: 1.6 nM

N#Cc1cnc(NC(=O)N2CCCc3cc(CN4CC[C@@H](O)C4=O)c(C=O)nc32)cc1OCC(F)F [(R)-N-(5-cyano-4-(2,2-difluoroethoxyl)pyridin-2-yl)-7-formyl-6-((3-hydroxy-2-oxopyrrolidin-1-yl)methyl)-3,4-dihydro-1,8-naphthyridine-1(2H)-carboxamide]
IC50 [1, 5]: 7.9 nM
IC50 [2, 6]: 3.7 nM

O=Cc1nc2c(cc1CO)CCCN2C(=O)Nc1cc(O[C@H]2CCOC2)ccn1 [Example 71, (S)-7-formyl-6-(hydroxymethyl)-N-(4-((tetrahydrofuran-3-yl)oxy)pyridin-2-yl)-3,4-dihydro-1,8-naphthyridine-1(2H)-carboxamide]
IC50 [1, 3]: 1570 nM
IC50 [2, 4]: 810 nM

N#Cc1cnc(NC(=O)N2CCCc3cc(CO)c(C=O)nc32)cc1OCC(O)CCCl (racemic) [Example 60, N-(4-(4-chloro-2-hydroxybutoxy)-5-cyanopyridin-2-yl)-7-formyl-6-(hydroxymethyl)-3,4-dihydro-1,8-naphthyridine-1(2H)-carboxamide]
IC50 [1, 3]: 26 nM
IC50 [2, 4]: 0.8 nM

CC(C)Oc1cc(NC(=O)N2CCCc3cc(C(F)F)c(C=O)nc32)ncc1C#N [N-(5-cyano-4-isopropoxypyridin-2-yl)-6-(difluoromethyl)-7-formyl-3,4-dihydro-1,8-naphthyridine-1(2H)-carboxamide]
IC50 [1, 5]: 21 nM
IC50 [2, 6]: 1.2 nM

COCCNc1cc(NC(=O)N2CCCc3cc(-c4sc(C)nc4C)c(C=O)nc32)ncc1C#N [N-(5-cyano-4-((2-methoxyethyl)amino)pyridin-2-yl)-6-(2,4-dimethylthiazol-5-yl)-7-formyl-3,4-dihydro-1,8-naphthyridine-1(2H)-carboxamide]
IC50 [1, 5]: 21 nM
IC50 [2, 6]: 9.5 nM

CC(C)Oc1cc(NC(=O)N2CCCc3cc(CN4CCN(C)CC4)c(C=O)nc32)ncc1C#N [N-(5-cyano-4-isopropoxypyridin-2-yl)-7-formyl-6-((4-methylpiperazin-1-yl)methyl)-3,4-dihydro-1,8-naphthyridine-1(2H)-carboxamide]
IC50 [1, 5]: 55.5 nM
IC50 [2, 6]: 3 nM

CN1CCN(Cc2cc3c(nc2C=O)N(C(=O)Nc2cc(NC(C)(C)C)c(C#N)cn2)CCC3)C(=O)C1 [N-(4-(tert-butylamino)-5-cyanopyridin-2-yl)-7-formyl-6-((4-methyl-2-oxopiperazin-1-yl)methyl)-3,4-dihydro-1,8-naphthyridine-1(2H)-carboxamide]
IC50 [1, 5]: 11.5 nM
IC50 [2, 6]: 1.8 nM

COCCNc1cc(NC(=O)N2CCCc3cc(CN4CCN(C)C(=O)C4)c(C=O)nc32)ncc1C#N [N-(5-cyano-4-((2-methoxyethyl)amino)pyridin-2-yl)-7-formyl-6-((4-methyl-3-oxopiperazin-1-yl)methyl)-3,4-dihydro-1,8-naphthyridine-1(2H)-carboxamide]
IC50 [1, 5]: 7.1 nM
IC50 [2, 6]: 1.3 nM

CN1CCN(Cc2cc3c(nc2C=O)N(C(=O)Nc2cc(OCCF)c(C#N)cn2)CCC3)C(=O)C1 [N-(5-cyano-4-(2-fluoroethoxyl)pyridin-2-yl)-7-formyl-6-((4-methyl-2-oxopiperazin-1-yl)methyl)-3,4-dihydro-1,8-naphthyridine-1(2H)-carboxamide]
IC50 [1, 5]: 7.1 nM
IC50 [2, 6]: 2.4 nM

CC(=O)N(C)Cc1cc2c(nc1C=O)N(C(=O)Nc1cc(NCCO)c(C#N)cn1)CCC2 [N-(5-cyano-4-((2-hydroxyethyl)amino)pyridin-2-yl)-7-formyl-6-((N-methylacetamido)methyl)-3,4-dihydro-1,8-naphthyridine-1(2H)-carboxamide]
IC50 [1, 5]: 8.1 nM
IC50 [2, 6]: 0.5 nM

COc1cc(NC(=O)N2CCCc3cc(CN4CCCC4(C)C)c(C=O)nc32)ncc1C#N [N-(5-cyano-4-methoxypyridin-2-yl)-6-((2,2-dimethylpyrrolidin-1-yl)methyl)-7-formyl-3,4-dihydro-1,8-naphthyridine-1(2H)-carboxamide]
IC50 [1, 5]: > 3000 nM
IC50 [2, 6]: 440 nM

COCCNc1cc(NC(=O)N2CCCc3cc(CN4CCC(N(C)C)C4)c(C=O)nc32)ncc1C#N (stereo not drawn) [N-(5-cyano-4-((2-methoxyethyl)amino)pyridin-2-yl)-6-((3-(dimethylamino)pyrrolidin-1-yl)methyl)-7-formyl-3,4-dihydro-1,8-naphthyridine-1(2H)-carboxamide]
IC50 [1, 5]: 63 nM
IC50 [2, 6]: 0.5 nM

CC(C)Oc1cc(NC(=O)N2CCCc3cc(CN4C[C@@H](N(C)C)CC4=O)c(C=O)nc32)ncc1C#N [(S)-N-(5-cyano-4-isopropoxypyridin-2-yl)-6-((4-(dimethylamino)-2-oxopyrrolidin-1-yl)methyl)-7-formyl-3,4-dihydro-1,8-naphthyridine-1(2H)-carboxamide]
IC50 [1, 5]: 11.1 nM
IC50 [2, 6]: 0.2 nM

COc1cc(NC(=O)N2CCCc3cc(CN4CCCC4=O)c(C=O)nc32)ncc1C(F)(F)F [7-formyl-N-(4-methoxy-5-(trifluoromethyl)pyridin-2-yl)-6-((2-oxopyrrolidin-1-yl)methyl)-3,4-dihydro-1,8-naphthyridine-1(2H)-carboxamide]
IC50 [1, 5]: 138 nM
IC50 [2, 6]: 46.5 nM

N#Cc1cnc(NC(=O)N2CCCc3cc(C(F)F)c(C=O)nc32)cc1Cl [N-(4-chloro-5-cyanopyridin-2-yl)-6-(difluoromethyl)-7-formyl-3,4-dihydro-1,8-naphthyridine-1(2H)-carboxamide]
IC50 [1, 5]: 223 nM
IC50 [2, 6]: 57 nM

CCOc1cc(NC(=O)N2CCCc3cc(CN4CCN(C)CC4=O)c(C=O)nc32)ncc1C#N [N-(5-cyano-4-ethoxypyridin-2-yl)-7-formyl-6-((4-methyl-2-oxopiperazin-1-yl)methyl)-3,4-dihydro-1,8-naphthyridine-1(2H)-carboxamide]
IC50 [1, 5]: 6.9 nM
IC50 [2, 6]: 1.3 nM

CC(C)Oc1cc(NC(=O)N2CCCc3cc(CN4CCN(C)C(=O)C4)c(C=O)nc32)ncc1C#N [N-(5-cyano-4-isopropoxypyridin-2-yl)-7-formyl-6-((4-methyl-3-oxopiperazin-1-yl)methyl)-3,4-dihydro-1,8-naphthyridine-1(2H)-carboxamide]
IC50 [1, 5]: 17 nM
IC50 [2, 6]: 1.7 nM

COC[C@@H](C)Nc1cc(NC(=O)N2CCCc3cc(CN(C)C(C)=O)c(C=O)nc32)ncc1C#N [(R)-N-(5-cyano-4-((1-methoxypropan-2-yl)amino)pyridin-2-yl)-7-formyl-6-((N-methylacetamido)methyl)-3,4-dihydro-1,8-naphthyridine-1(2H)-carboxamide]
IC50 [1, 5]: 4.5 nM
IC50 [2, 6]: 1.8 nM

N#Cc1cnc(NC(=O)N2CCCc3cc(CO)c(C=O)nc32)cc1OC1CCOCC1 [Example 53, N-(5-cyano-4-((tetrahydro-2H-pyran-4-yl)oxy)pyridin-2-yl)-7-formyl-6-(hydroxymethyl)-3,4-dihydro-1,8-naphthyridine-1(2H)-carboxamide]
IC50 [1, 3]: 36 nM
IC50 [2, 4]: 2.9 nM

COc1cc(NC(=O)N2CCCc3cc(CN4CCN(C)CC4=O)c(C=O)nc32)ncc1C#N [N-(5-cyano-4-methoxypyridin-2-yl)-7-formyl-6-((4-methyl-2-oxopiperazin-1-yl)methyl)-3,4-dihydro-1,8-naphthyridine-1(2H)-carboxamide]
IC50 [1, 5]: 10.2 nM
IC50 [2, 6]: 4.8 nM

COC[C@@H](C)Oc1cc(NC(=O)N2CCCc3cc(CN(C)C(C)=O)c(C=O)nc32)ncc1C#N [(R)-N-(5-cyano-4-((1-methoxypropan-2-yl)oxy)pyridin-2-yl)-7-formyl-6-((N-methylacetamido)methyl)-3,4-dihydro-1,8-naphthyridine-1(2H)-carboxamide]
IC50 [1, 5]: 3.7 nM
IC50 ([1]; measured and considered as outlier values, not included in the table or list, read-out: IC50 in the cellular BaF3 FGFR4 assay, outlier values): 174 nM
IC50 [2, 6]: 0.5 nM

CC(=O)N(C)Cc1cc2c(nc1C=O)N(C(=O)Nc1cc(OCC(C)C)c(C#N)cn1)CCC2 [N-(5-cyano-4-isobutoxypyridin-2-yl)-7-formyl-6-((N-methylacetamido)methyl)-3,4-dihydro-1,8-naphthyridine-1(2H)-carboxamide]
IC50 [1, 5]: 6 nM
IC50 [2, 6]: 1.3 nM
